Experimental data from publication PMC12038006, “Structure and mechanism of a mycobacterial isoniazid efflux pump MsRv1273c/72c with a degenerate nucleotide-binding site” (Nature Communications, 2025).

Target: T1, MsRv1273c/72c (Mycolicibacterium smegmatis, UniProt A0R271+A0R272)
T1 construct: gene MSMEG_5008
Format: binding

T1 sequence (A0R272 entry or part of it): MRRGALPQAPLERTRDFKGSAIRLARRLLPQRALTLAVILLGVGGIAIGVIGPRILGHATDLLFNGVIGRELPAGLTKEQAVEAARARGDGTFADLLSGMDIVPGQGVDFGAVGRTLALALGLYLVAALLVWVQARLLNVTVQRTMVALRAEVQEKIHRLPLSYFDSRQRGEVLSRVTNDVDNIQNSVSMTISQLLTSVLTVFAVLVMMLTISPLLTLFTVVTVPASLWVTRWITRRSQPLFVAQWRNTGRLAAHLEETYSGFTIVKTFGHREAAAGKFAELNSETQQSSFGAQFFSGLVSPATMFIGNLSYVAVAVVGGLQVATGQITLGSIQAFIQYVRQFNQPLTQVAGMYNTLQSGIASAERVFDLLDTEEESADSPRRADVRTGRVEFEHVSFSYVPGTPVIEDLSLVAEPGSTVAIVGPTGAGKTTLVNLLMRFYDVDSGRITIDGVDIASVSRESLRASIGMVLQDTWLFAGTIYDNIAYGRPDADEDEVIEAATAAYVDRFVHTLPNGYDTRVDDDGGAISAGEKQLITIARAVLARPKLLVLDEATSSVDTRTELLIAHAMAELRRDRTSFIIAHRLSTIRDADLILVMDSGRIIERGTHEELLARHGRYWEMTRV
T1 sequence (A0R271 entry or part of it): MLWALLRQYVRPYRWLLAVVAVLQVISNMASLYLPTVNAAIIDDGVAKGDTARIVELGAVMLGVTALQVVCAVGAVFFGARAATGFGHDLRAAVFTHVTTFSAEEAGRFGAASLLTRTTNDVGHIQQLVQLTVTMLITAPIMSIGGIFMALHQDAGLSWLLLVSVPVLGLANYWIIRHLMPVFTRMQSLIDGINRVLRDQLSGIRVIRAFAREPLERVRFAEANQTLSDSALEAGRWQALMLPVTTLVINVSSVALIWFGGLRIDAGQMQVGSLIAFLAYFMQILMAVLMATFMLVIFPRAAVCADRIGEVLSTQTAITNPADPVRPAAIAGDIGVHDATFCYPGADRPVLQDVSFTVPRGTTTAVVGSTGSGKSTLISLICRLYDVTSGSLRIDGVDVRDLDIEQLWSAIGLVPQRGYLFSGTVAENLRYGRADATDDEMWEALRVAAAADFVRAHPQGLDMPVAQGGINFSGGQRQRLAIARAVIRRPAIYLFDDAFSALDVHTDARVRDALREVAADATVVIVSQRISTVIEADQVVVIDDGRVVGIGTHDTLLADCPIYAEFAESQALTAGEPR

Row | SMILES | cryo-EM structure
1 | Nc1ncnc2c1ncn2[C@@H]1O[C@H](COP(=O)(O)OP(=O)(O)O)[C@@H](O)[C@H]1O [ADP] | In this structure, ADP binds at the consensus site
2 | Nc1ncnc2c1ncn2[C@@H]1O[C@H](COP(=O)(O)OP(=O)(O)NP(=O)(O)O)[C@@H](O)[C@H]1O [AMPPNP] | Though both NBSs bind AMPPNP, the NBDs are partially dimerized at the degenerate site
3 | Nc1ncnc2c1ncn2[C@@H]1O[C@H](COP(=O)(O)OP(=O)(O)OP(=O)(O)O)[C@@H](O)[C@H]1O [ATP] | the degenerate site is bound with an ATP, which has not been hydrolyzed
